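Exposure lasted 48 hours, with cells grown in 96-well plates and compounds tested at five concentrations. GI50 = concentration required for 50% inhibition of growth.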 Active and inactive are the calls of the source. No stated cut-off is given here; in the data, active = GI50 up to about 1.1 µM and inactive = higher.
How the values were obtained:
Assay in all cases: NCI-60 cell line screen, 48 h
786-0 = system: 786-0
A498 = system: A498
A549 = system: A549
ACHN = system: ACHN
CAKI-1 = system: CAKI-1
CCRF-CEM = system: CCRF-CEM
COLO 205 = system: COLO 205
DLD-1 = system: DLD-1
DMS-114 = system: DMS-114
DMS-273 = system: DMS-273
EKVX = system: EKVX
HCC 2998 = system: HCC 2998
HCT-116 = system: HCT-116
HCT-15 = system: HCT-15
HL-60 = system: HL-60
HOP-18 = system: HOP-18
HOP-62 = system: HOP-62
HOP-92 = system: HOP-92
HT-29 = system: HT-29
IGROV-1 = system: IGROV-1
K562 = system: K562
KM-20L2 = system: KM-20L2
KM12 = system: KM12
LOX IMVI = system: LOX IMVI
LXFL 529 = system: LXFL 529
M14 = system: M14
M19-MEL = system: M19-MEL
Malme-3M = system: Malme-3M
NCI-H23 = system: NCI-H23
NCI-H460 = system: NCI-H460
NCI-H522 = system: NCI-H522
OVCAR-3 = system: OVCAR-3
OVCAR-4 = system: OVCAR-4
OVCAR-5 = system: OVCAR-5
OVCAR-8 = system: OVCAR-8
RXF 393 = system: RXF 393
RXF 631 = system: RXF 631
SF-268 = system: SF-268
SF-295 = system: SF-295
SF-539 = system: SF-539
SK-MEL-28 = system: SK-MEL-28
SK-MEL-2 = system: SK-MEL-2
SK-MEL-5 = system: SK-MEL-5
SK-OV-3 = system: SK-OV-3
SN12C = system: SN12C
SNB-19 = system: SNB-19
SNB-75 = system: SNB-75
SNB-78 = system: SNB-78
SW-620 = system: SW-620
TK-10 = system: TK-10
U-251 = system: U-251
UACC-257 = system: UACC-257
UACC-62 = system: UACC-62
UO-31 = system: UO-31
XF498 = system: XF498
MOLT-4 = system: MOLT-4
NCI-H226 = system: NCI-H226
RPMI-8226 = system: RPMI-8226
SR = system: SR

CC1=C(c2cc(C(=O)Nc3ccc(Cl)cc3)nc(S)n2)Sc2ccccc2N1
GI50 (786-0): > 100 µM (inactive)
GI50 (A498): > 100 µM (inactive)
GI50 (A549): > 100 µM (inactive)
GI50 (ACHN): > 100 µM (inactive)
GI50 (CAKI-1): > 100 µM (inactive)
GI50 (CCRF-CEM): > 100 µM (inactive)
GI50 (COLO 205): > 100 µM (inactive)
GI50 (DLD-1): > 100 µM (inactive)
GI50 (DMS-114): > 100 µM (inactive)
GI50 (DMS-273): > 100 µM (inactive)
GI50 (EKVX): > 100 µM (inactive)
GI50 (HCC 2998): > 100 µM (inactive)
GI50 (HCT-116): > 100 µM (inactive)
GI50 (HCT-15): > 100 µM
GI50 (HL-60): > 100 µM (inactive)
GI50 (HOP-18): > 100 µM (inactive)
GI50 (HOP-62): > 100 µM (inactive)
GI50 (HOP-92): > 100 µM (inactive)
GI50 (HT-29): > 100 µM (inactive)
GI50 (IGROV-1): > 100 µM (inactive)
GI50 (K562): > 100 µM (inactive)
GI50 (KM-20L2): > 100 µM (inactive)
GI50 (KM12): > 100 µM (inactive)
GI50 (LOX IMVI): > 100 µM (inactive)
GI50 (LXFL 529): > 100 µM (inactive)
GI50 (M14): > 100 µM (inactive)
GI50 (M19-MEL): > 100 µM (inactive)
GI50 (Malme-3M): > 100 µM (inactive)
GI50 (NCI-H23): > 100 µM (inactive)
GI50 (NCI-H460): > 100 µM (inactive)
GI50 (NCI-H522): > 100 µM (inactive)
GI50 (OVCAR-3): > 100 µM (inactive)
GI50 (OVCAR-4): > 100 µM (inactive)
GI50 (OVCAR-5): > 100 µM (inactive)
GI50 (OVCAR-8): > 100 µM (inactive)
GI50 (RXF 393): > 100 µM (inactive)
GI50 (RXF 631): > 100 µM (inactive)
GI50 (SF-268): > 100 µM (inactive)
GI50 (SF-295): > 100 µM (inactive)
GI50 (SF-539): > 100 µM (inactive)
GI50 (SK-MEL-28): > 100 µM (inactive)
GI50 (SK-MEL-2): > 100 µM (inactive)
GI50 (SK-MEL-5): > 100 µM (inactive)
GI50 (SK-OV-3): > 100 µM (inactive)
GI50 (SN12C): > 100 µM (inactive)
GI50 (SNB-19): > 100 µM (inactive)
GI50 (SNB-75): > 100 µM (inactive)
GI50 (SNB-78): > 100 µM (inactive)
GI50 (SW-620): > 100 µM (inactive)
GI50 (TK-10): > 100 µM (inactive)
GI50 (U-251): > 100 µM (inactive)
GI50 (UACC-257): > 100 µM (inactive)
GI50 (UACC-62): > 100 µM (inactive)
GI50 (UO-31): > 100 µM (inactive)
GI50 (XF498): > 100 µM (inactive)

CC(C)c1cccc(=O)c(O)c1 [HINOKITIOL]
GI50 (786-0): 5.22 µM (inactive)
GI50 (A498): 44.1 µM (inactive)
GI50 (A549): 9.35 µM (inactive)
GI50 (ACHN): 3.33 µM (inactive)
GI50 (CAKI-1): 16.1 µM (inactive)
GI50 (CCRF-CEM): 2.79 µM (inactive)
GI50 (COLO 205): 4.24 µM (inactive)
GI50 (DLD-1): 5.31 µM (inactive)
GI50 (DMS-114): 3.72 µM (inactive)
GI50 (DMS-273): 3.83 µM (inactive)
GI50 (EKVX): 17.3 µM (inactive)
GI50 (HCC 2998): 9.23 µM (inactive)
GI50 (HCT-116): 3.91 µM (inactive)
GI50 (HCT-15): 5.14 µM
GI50 (HL-60): 2.49 µM (inactive)
GI50 (HOP-18): 15.3 µM (inactive)
GI50 (HOP-62): 10.9 µM (inactive)
GI50 (HOP-92): 15.9 µM (inactive)
GI50 (HT-29): 4.27 µM (inactive)
GI50 (IGROV-1): 13.5 µM (inactive)
GI50 (K562): 6.38 µM (inactive)
GI50 (KM-20L2): 4.27 µM (inactive)
GI50 (KM12): 12.4 µM (inactive)
GI50 (LOX IMVI): 5.06 µM (inactive)
GI50 (LXFL 529): 6.85 µM (inactive)
GI50 (M14): 8.49 µM (inactive)
GI50 (M19-MEL): 13.3 µM (inactive)
GI50 (MOLT-4): 3.18 µM (inactive)
GI50 (Malme-3M): 12.6 µM (inactive)
GI50 (NCI-H226): 11 µM (inactive)
GI50 (NCI-H23): 8.09 µM (inactive)
GI50 (NCI-H460): 6.98 µM (inactive)
GI50 (NCI-H522): 3.82 µM (inactive)
GI50 (OVCAR-3): 4.05 µM (inactive)
GI50 (OVCAR-4): 7.23 µM (inactive)
GI50 (OVCAR-5): 15.7 µM (inactive)
GI50 (OVCAR-8): 4.45 µM (inactive)
GI50 (RPMI-8226): 7.93 µM (inactive)
GI50 (RXF 393): 25.4 µM (inactive)
GI50 (RXF 631): 30.5 µM (inactive)
GI50 (SF-268): 6.37 µM (inactive)
GI50 (SF-295): 6.52 µM (inactive)
GI50 (SF-539): 5.31 µM (inactive)
GI50 (SK-MEL-28): 18.9 µM (inactive)
GI50 (SK-MEL-2): 12.1 µM (inactive)
GI50 (SK-MEL-5): 24.5 µM (inactive)
GI50 (SK-OV-3): 49.4 µM (inactive)
GI50 (SN12C): 11.2 µM (inactive)
GI50 (SNB-19): 10.9 µM (inactive)
GI50 (SNB-75): 24.4 µM (inactive)
GI50 (SNB-78): 48.3 µM (inactive)
GI50 (SR): 2.84 µM (inactive)
GI50 (SW-620): 5.9 µM (inactive)
GI50 (TK-10): 58.1 µM (inactive)
GI50 (U-251): 9.12 µM (inactive)
GI50 (UACC-257): 4.1 µM (inactive)
GI50 (UACC-62): 5.79 µM (inactive)
GI50 (UO-31): 10.5 µM (inactive)
GI50 (XF498): 4.24 µM (inactive)

Source: ChEMBL document CHEMBL1201862, “PubChem BioAssay data set” (2004)
